Reference: patent publication US7785587B2, “Therapeutic methods for muscular or neuromuscular disorders” (Wyeth, priority 2003, dated 2010)

Legend:
Format in all cases: in vivo, mouse
[1] = test system: C57BL/10ScSn-mdx/j mice; assay: Total body weight of mdx mice treated 4 weeks with prednisone with or without JA-16 (Example 2); settings: JA-16 60 mg/kg per week IP, prednisone 2 mg/kg SC 3 times a week
Experimental: (§1) Male C57BL/10ScSn-mdx/j and C57BL/10 (Jackson Laboratory, Bar Harbor, Me.). Mouse monoclonal anti-GDF-8 antibody JA-16, prednisone (P-9901, Sigma), or vehicle (peanut oil) was injected starting at age 5-7 weeks for 4 weeks. Mice were intraperitoneally (IP) injected with JA-16 at a dose of 60 mg/kg per week (double dosing at first week), or subcutaneously (SC) injected with prednisone at 2 mg/kg, 3 times a week. The body weight and grip strength were monitored before, during and after treatment. Results are shown in Table 3 and Table 4, respectively.

[2] = test system: C57BL/10ScSn-mdx/j mice; assay: Grip strength of mdx mice treated 4 weeks with prednisone with or without JA-16 (Example 2); settings: JA-16 60 mg/kg per week IP, prednisone 2 mg/kg SC 3 times a week
Experimental: as §1

[3] = test system: C57BL/10ScSn-mdx/j mice; assay: Gastrocnemius and quadriceps weight in mdx mice treated 4 weeks with prednisone with or without JA-16 (Example 2); settings: end of 4-week study
Experimental: as §1, with “week.” for “week. The body weight and grip strength were monitored before, during and after treatment. Results are shown in Table 3 and Table 4, respectively.”
(§2) At the end of the study, mice were sacrificed and muscle mass was assessed by dissecting and weighing the gastrocnemius and quadriceps. To confirm biological activity of prednisone, sera from a separate cohort of mice were collected and analyzed for IL6 and IL1β (Ani Lyctics, Inc., Gaithersburg, Md.).

[4] = test system: IL6; assay: Serum IL6 in mice treated with prednisone; settings: separate cohort of mice treated with prednisone
Experimental: as §2

[5] = test system: IL1β; assay: Serum IL1β in mice treated with prednisone; settings: separate cohort of mice treated with prednisone
Experimental: as §2

## C[C@]12C=CC(=O)C=C1CC[C@@H]1[C@@H]2C(=O)C[C@@]2(C)[C@H]1CC[C@]2(O)C(=O)CO [Prednisone, prednisone]
[1]; week 0 of trial
  Total body weight (average ± SEM): 17.6 ± 1.8 g
[1]; week 1 of trial
  Total body weight (average ± SEM): 20.9 ± 1.8 g
[1]; week 2 of trial
  Total body weight (average ± SEM): 24.2 ± 1.6 g
[1]; week 3 of trial
  Total body weight (average ± SEM): 24.7 ± 1.5 g
[1]; week 4 of trial
  Total body weight (average ± SEM): 25.9 ± 1.6 g
[2]; week 0 of trial
  Grip strength (average ± SEM): 0.144 ± 0.010 lb
[2]; week 3 of trial
  Grip strength (average ± SEM): 0.177 ± 0.006 lb
[2]; week 4 of trial
  Grip strength (average ± SEM): 0.213 ± 0.011 lb
[3]
  Muscle weight (average ± SEM), Gastroc: 0.287 ± 0.023 g
  Muscle weight (average ± SEM), Quad: 0.417 ± 0.029 g
[4]
  IL6 in sera: reduced
[5]
  IL1β in sera: reduced
